Results as given in patent US7138361B2, “Herbicidal heterocycles” (E. I. du Pont de Nemours and Company, priority 2000, dated 2006).

Experiments:
Assay type in all cases: in vivo
[1] = system: Scirpus mucronatus (Sm); assay: Test D greenhouse paddy-water test in rice; conditions: 21 days, 0-100 scale
Text: (§1) Four plastic pots (ca. 16-cm diameter) per rate were partially filled with sterilized Tama silt loam soil comprised of a 35:50:15 ratio of sand, silt and clay and 2.6% organic matter. Separate plantings for each of the four pots were as follows. Seeds from the U.S. of Heteranthera limosa (Hl), Monochoria vaginalis (Mv), Ammania auriculata (Aa), and Sphenoclea zeylanica (Sz) were planted into one 16-cm pot for each rate. Seeds from the U.S. of Cyperus iria (Ci), Leptochloa fascicularis (Li), one stand of 9 or 10 direct-seeded rice seedlings (Oryza saliva cv. ‘Japonica—M202’; Oss), and one stand of 6 transplanted rice seedlings (Oryza sativa cv. ‘Japonica—M202’; Ost) were planted into one 16-cm pot for each rate. Seeds from the U.S. of Cyperus difformis (Cd), Alisma plantago-aquatica (Ap), and Scirpus mucronatus (Sm) were planted into one 16-cm pot for each rate. Seeds from the U.S. of Echinochloa crus-galli (Ecg), Echinochloa oryzicola (Eor), Echinochloa oryzoides (Eoz) and Echinochloa colonum (Ecc) were planted into one 16-cm pot for each rate. Plantings were sequential so that crop and weed species were at the 2.0 to 2.5-leaf stage at time of treatment.
(§2) Potted plants were grown in a greenhouse with day/night temperature settings of 29.5/26.7° C., and supplemental balanced lighting was provided to maintain a 16-hour photoperiod. Test pots were maintained in the greenhouse until test completion.
(§3) Chemical treatments consisting of Compound 1 of Index Table A (Cmpd 1), daimuron (Cmpd D), quinoclamine (Cmpd Q) and combinations thereof were formulated in acetone. At time of treatment, test pots were flooded to 3 cm above the soil surface, treated by application of test compounds directly to the paddy water, and then maintained at that water depth for the duration of the test. Effects of treatments on rice and weeds were visually evaluated by comparison to untreated controls after 21 days. Plant response ratings are reported on a 0 to 100 scale; where 0 is no effect and 100 is complete control. ND means no data.
(§4) Colby's equation was used to calculate the expected additive herbicidal effect of the mixtures of Compound 1 with daimuron (Cmpd D) and quinoclamine (Cmpd Q). Colby's equation (Colby, S. R “Calculating Synergistic and Antagonistic Responses of Herbicide Combinations,” Weeds, 15(1), pp 20–22 (1967)) calculates the expected additive effect of herbicidal mixtures, and for two active ingredients is of the form: Pa+b=Pa+Pb−(PaPb/100) wherein Pa+b is the percentage effect of the mixture expected from additive contribution of the individual components, • Pa is the observed percentage effect of the first active ingredient at the same use rate as in the mixture, and • Pb is the observed percentage effect of the second active ingredient at the same use rate as in the mixture.

[2] = system: direct-seeded rice seedlings (Oryza saliva cv. 'Japonica—M202'; Oss); assay: Test D greenhouse paddy-water test in rice; conditions: 21 days, 0-100 scale
Text: as §1, §2, §3, §4

[3] = system: Alisma plantago-aquatica (Ap); assay: Test D greenhouse paddy-water test in rice; conditions: 21 days, 0-100 scale
Text: as §1, §2, §3, §4

[4] = system: Echinochloa colonum (Ecc); assay: Test D greenhouse paddy-water test in rice; conditions: 21 days, 0-100 scale
Text: as §1, §2, §3, §4

[5] = system: Echinochloa crus-galli (Ecg); assay: Test D greenhouse paddy-water test in rice; conditions: 21 days, 0-100 scale
Text: as §1, §2, §3, §4

[6] = system: Leptochloa fascicularis (Li); assay: Test D greenhouse paddy-water test in rice; conditions: 21 days, 0-100 scale
Text: as §1, §2, §3, §4

[7] = system: Cyperus difformis (Cd); assay: Test D greenhouse paddy-water test in rice; conditions: 21 days, 0-100 scale
Text: as §1, §2, §3, §4

[8] = system: transplanted rice seedlings (Oryza sativa cv. 'Japonica—M202'; Ost); assay: Test D greenhouse paddy-water test in rice; conditions: 21 days, 0-100 scale
Text: as §1, §2, §3, §4

[9] = system: Sphenoclea zeylanica (Sz); assay: Test D greenhouse paddy-water test in rice; conditions: 21 days, 0-100 scale
Text: as §1, §2, §3, §4

[10] = system: Monochoria vaginalis (Mv); assay: Test D greenhouse paddy-water test in rice; conditions: 21 days, 0-100 scale
Text: as §1, §2, §3, §4

[11] = system: winter barley (Hordeum vulgare); assay: Test C postemergence
Procedure, shortened: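 Visual 0–100 rating vs controls (0 = no effect, 100 = complete control) at 12–14 d, greenhouse. Compounds in non-phytotoxic solvent + surfactant; pre: sprayed after seeding; post: 1–4-leaf plants, 2–18 cm.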

[12] = Rate 250 g/ha, scale 0 to 100 (0 no effect, 100 complete control)

## CC(C)(C)c1ccn(C2SCN(c3cccc(C(F)(F)F)c3)C2=O)n1 (stereo not shown) [Compound 1]
[1]; 32 g/ha alone
  Obs. (observed effect) Sm: 60
[1]; 64 g/ha alone
  Obs. (observed effect) Sm: 100
[1]; 125 g/ha alone
  Obs. (observed effect) Sm: 100
[1]; 250 g/ha alone
  Obs. (observed effect) Sm: 100
[1]; 500 g/ha alone
  Obs. (observed effect) Sm: 100
[2]; 32 g/ha alone
  Obs. (observed effect) Oss: 40
[2]; 64 g/ha alone
  Obs. (observed effect) Oss: 40
[2]; 125 g/ha alone
  Obs. (observed effect) Oss: 70
[2]; 250 g/ha alone
  Obs. (observed effect) Oss: 100
[2]; 500 g/ha alone
  Obs. (observed effect) Oss: 100
[3]; 32 g/ha alone
  Obs. (observed effect) Ap: 100
[3]; 64 g/ha alone
  Obs. (observed effect) Ap: 100
[3]; 125 g/ha alone
  Obs. (observed effect) Ap: 100
[3]; 250 g/ha alone
  Obs. (observed effect) Ap: 100
[3]; 500 g/ha alone
  Obs. (observed effect) Ap: 100
[4]; 32 g/ha alone
  Obs. (observed effect) Ecc: 0
[4]; 64 g/ha alone
  Obs. (observed effect) Ecc: 100
[4]; 125 g/ha alone
  Obs. (observed effect) Ecc: 100
[4]; 250 g/ha alone
  Obs. (observed effect) Ecc: 100
[4]; 500 g/ha alone
  Obs. (observed effect) Ecc: 100
[5]; 32 g/ha alone
  Obs. (observed effect) Ecg: 0
[5]; 64 g/ha alone
  Obs. (observed effect) Ecg: 85
[5]; 125 g/ha alone
  Obs. (observed effect) Ecg: 100
[5]; 250 g/ha alone
  Obs. (observed effect) Ecg: 100
[5]; 500 g/ha alone
  Obs. (observed effect) Ecg: 100
[6]; 32 g/ha alone
  Obs. (observed effect) Lf: 90
[6]; 64 g/ha alone
  Obs. (observed effect) Lf: 100
[6]; 125 g/ha alone
  Obs. (observed effect) Lf: 100
[6]; 250 g/ha alone
  Obs. (observed effect) Lf: 100
[6]; 500 g/ha alone
  Obs. (observed effect) Lf: 100
[7]; 32 g/ha alone
  Obs. (observed effect) Cd: 100
[7]; 64 g/ha alone
  Obs. (observed effect) Cd: 100
[7]; 125 g/ha alone
  Obs. (observed effect) Cd: 100
[7]; 250 g/ha alone
  Obs. (observed effect) Cd: 100
[7]; 500 g/ha alone
  Obs. (observed effect) Cd: 100
[8]; 32 g/ha alone
  Obs. (observed effect) Ost: 15
[8]; 64 g/ha alone
  Obs. (observed effect) Ost: 0
[8]; 125 g/ha alone
  Obs. (observed effect) Ost: 0
[8]; 250 g/ha alone
  Obs. (observed effect) Ost: 20
[8]; 500 g/ha alone
  Obs. (observed effect) Ost: 60
[9]; 32 g/ha alone
  Obs. (observed effect) Sz: 100
[9]; 64 g/ha alone
  Obs. (observed effect) Sz: 100
[9]; 125 g/ha alone
  Obs. (observed effect) Sz: 100
[9]; 250 g/ha alone
  Obs. (observed effect) Sz: 100
[9]; 500 g/ha alone
  Obs. (observed effect) Sz: 100
[10]; 32 g/ha alone
  Obs. (observed effect) Mv: 100
[10]; 64 g/ha alone
  Obs. (observed effect) Mv: 100
[10]; 125 g/ha alone
  Obs. (observed effect) Mv: 100
[10]; 250 g/ha alone
  Obs. (observed effect) Mv: 100
[10]; 500 g/ha alone
  Obs. (observed effect) Mv: 100

## Cc1ccc(N2CCC(n3ccc(C(C)(C)C)n3)C2=O)cc1OCCCl (stereo not shown) [Compound 109]
[11]; [12]
  Plant response rating, Barley, Winter: 0

## CCC(CC)c1ccn(C2OCN(c3cccc(OC(F)(F)F)c3)C2=O)n1 (stereo not shown) [Compound 68]
[11]; [12]
  Plant response rating, Barley, Winter: 0

## CC1(c2ccn(C3OCN(c4cccc(OC(F)(F)F)c4)C3=O)n2)CC1 (stereo not shown) [Compound 69]
[11]; Rate 62 g/ha, scale 0 to 100
  Plant response rating, Barley, Winter: 0
[11]; Rate 125 g/ha, scale 0 to 100, 0 no effect, 100 complete control
  Plant response rating, Barley, Winter: 0
[11]; Rate 500 g/ha, scale 0 to 100 (0 no effect, 100 complete control)
  Plant response rating, Barley, Winter: 10
